From patent publication US10160972B2, “Methods and materials for treating cancer” (Mayo Foundation for Medical Education and Research, priority 2012, dated 2018)

Key:
[1] = tested on: A549 nonsmall cell lung cancer cells; experiment: Cell number growth inhibition assay; type: cell-based, human
Experimental: (§1) A number of cancer cell lines were tested to determine whether SCD1 protein expression correlates with growth inhibition of an SCD1 inhibitor in human cancer cell lines.
(§2) Cells (20,000/ml) were plated in 12 well cell culture plates, allowed to attach and treated with the indicated dose of SCD1 inhibitor ([…]) or standard of care (gemcitabine). Cell number was counted using a Coulter Counter. As show in FIG. 7, the data are expressed as percent of DMSO control. Each value represents triplicates. Western analysis for SCD1 protein expression was performed on each cell line with beta-actin as the loading control.
(§3) The following cell lines were studied using a similar method as that described above.

[2] = tested on: HOV TAX2 ovarian cancer cells; experiment: Cell number growth inhibition assay; type: cell-based, human
Experimental: as §1, §2, §3

[3] = tested on: KTC3 thyroid cancer cells; experiment: Cell number growth inhibition assay; type: cell-based, human
Experimental: as §1, §2, §3

[4] = tested on: FF1 cells; experiment: Cell number growth inhibition assay; type: cell-based, human
Experimental: A number of cancer cell lines were tested to determine whether SCD1 protein expression correlates with growth inhibition of an SCD1 inhibitor in human cancer cell lines. […] Cell number was counted using a Coulter Counter. […] Each value represents triplicates.

[5] = tested on: Caki1 and A498 cells; experiment: Western blot of ER stress markers; type: cell-based, human; conditions: 75 nM drug or shSCD780 knockdown, 48 hours
Experimental: (§4) Protein extracts, electrophoresis, and membrane transfers were prepared as previously described (Copland J A, Marlow L A, Kurakata S, Fujiwara K, Wong A K, Kreinest P A, et al. Novel highaffinity PPARgamma agonist alone and in combination with paclitaxel inhibits human anaplastic thyroid carcinoma tumor growth via p21WAF1/CIP1. Oncogene. 2006; 25:2304-17). Primary antibodies included SCD1, PARP, DDIT3, BiP, sXBP1, and β-actin. A Supersignal chemiluminescent kit was used to perform detection.

[6] = tested on: A498 cells; experiment: qPCR of five ER stress genes; type: cell-based, human
Experimental: (§5) An RNAqueous Midi Kit was utilized to extract and purify RNA from cell lines. Human tissue RNA was prepared using TRIzol® per manufacturer's protocol followed by purification using the RNAqueous Midi Kit. The O.D. 260/280 ratio of the mRNA was at least 1.8 and the 18s/28s bands were verified on a 1% agarose gel. cDNA was prepared from purified RNA samples using High Capacity cDNA Reverse Transcriptase Kit per manufacturer's instruction. TaqMan®Fast Universal PCR Master Mix and TaqMan®FAMTM dye-labeled probes including POLR2A (Hs00172187_m1) (normalization control), SCD1 (Hs01682761_m1), HSPA5 (Hs99999174_m1), CEBPβ (CEBPB Hs00270923_s1), GADD45A (Hs00169255_m1), DDIT3 (Hs01090850_m1), and HERPUD1 (Hs01124269_m1) were combined with prepared cDNA samples to analyze relative mRNA expression via qPCR. Fold change values were compared between normal and tumor, non-target scrambled lentiviral and target lentiviral infected, and DMSO vs. A939572 treated samples using the ΔΔCt method (Schmittgen T D, Livak K J. Analyzing real-time PCR data by the comparative C(T) method. Nat Protoc. 2008; 3:1101-8).
(§6) In order to validate the specificity of ER stress induction mediated by both A939572 and shSCD780, rescue assays were performed using OA-BSA in Caki1 and A498 cells qPCR analysis of five ER stress genes identified in the gene array including BiP, CHOP, HERPUD1 (homocysteine-inducible, ER-stress inducible, ubiquitin-like-1), GADD45a (DNA damage inducible transcript 1, DDIT1), and CEBPβ (CCAAT/enhancer binding protein beta) were examined.

[7] = tested on: Caki1 cells; experiment: qPCR of five ER stress genes; type: cell-based, human
Experimental: as §5, §6

[8] = tested on: SCD1; experiment: Lentiviral shRNA knockdown of SCD1 in ccRCC cell lines (Caki1 and A498); type: cell-based, human
Experimental: (§7) MISSION shRNA pLK0.1 constructs were used to make self-inactivating shRNA lentiviruses for human SCD1 (clones: NM_005063.3-1200s1c1[shSCD1200], NM_005063.3-780s1c1[shSCD780]), and a non-target (NT) random scrambled sequence control (SHC002). Transfection reagents Lipofectamine 2000 and ViraPower were used to generate lentiviruses using HEK293FT viral progenitor cells. ccRCC and NRE cells were incubated with lentivirus plus 5 μg/mL polybrene for 24 hrs prior to clonal selection with Puromycin.
as §5, §4
To determine the involvement of SCD1 expression in renal cell carcinoma proliferation, two separate lentiviral constructs were designed to express shRNA molecules having the ability to reduce SCD1 expression. The first lentiviral construct was designed to express an shRNA designated SCD780. The sequence of SCD780 was as follows: 5′-[…]-3′ (SEQ ID NO:1). The second lentiviral construct was designed to express an shRNA designated SCD1200. The sequence of SCD1200 was as follows: 5′-[…]-3′ (SEQ ID NO:2). A non-target lentiviral construct was designed as a control.

[9] = tested on: SCD1; experiment: Lentiviral shRNA knockdown of SCD1 in normal renal epithelial cells (K359N and K360N); type: cell-based, human
Experimental: as §7
as §5, with “Fold change values were compared between normal and tumor, non-target scrambled lentiviral and target lentiviral infected, and DMSO vs. A939572 treated samples using the ΔΔCt method (Schmittgen T D, Livak K J. Analyzing real-time PCR data by the comparative C(T) method. Nat Protoc. 2008; 3:1101-8).” left out

[10] = tested on: Caki1 and A498 ccRCC cell lines; experiment: Proliferation assay of shSCD lentiviral infected cells; type: cell-based, human; conditions: vs NT control or treated normal kidney cells (K359N and K360N), counted after five days
Experimental: (§8) Drug stocks were prepared in DMSO. Monotherapeutic treatment identified drug dose-response. […] Temsirolimus dosing was performed as described in the text.
as §7
(§9) Media alone and BSA supplemented media served as control groups. Proliferation assay of NT control versus shSCD780 infected Caki1 and A498 cells cultured in media with or without OABSA were counted after five days. […] SCD1 knockdown by lentiviral infection was confirmed at the protein level (FIG. 3B).

[11] = tested on: Caki1 and A498 ccRCC cell lines; experiment: PARP cleavage immunoblot of shSCD lentiviral infected cells; type: cell-based, human
Experimental: as §7, §4, §9

[12] = tested on: ATF6 luciferase reporter in Caki1 cells
Experimental: (§10) For transient transfection, Caki1 and A498 cells were transfected using Lipofectamine 2000. Cells treated with DMSO vs. A939572 or infected using shSCD780 lentiviral constructs vs. NT control were harvested after 48 hrs using Promega's Dual Luciferase assay kit per the manufacturer's protocol and luciferase activity was measured using a Veritas Luminometer; reported as relative luminescence.
(§11) Caki1 and A498 cells transfected with an ATF6 luciferase reporter (p5xATF6-GL3) were treated with a 75 nM dose of A939572 or were infected with shSCD780. Resulting luminescence was measured after 48 hours.

[13] = tested on: ATF6 luciferase reporter in A498 cells
Experimental: as §10, §11

[14] = tested on: A375 melanoma cells; experiment: Cell number growth inhibition assay; type: cell-based, human
Experimental: as §1, §2, §3

[15] = tested on: Mela 11 melanoma cells; experiment: Cell number growth inhibition assay; type: cell-based, human
Experimental: as §1, §2, §3

[16] = tested on: A498, Caki1, Caki2, and ACHN ccRCC cell lines; experiment: Temsirolimus dose out, cell proliferation; type: cell-based, human; conditions: monotherapy, four ccRCC cell lines; no dose response could be determined
Experimental: as §8
After identifying appropriate cell proliferative dose responses for pazopanib and sunitinib in four ccRCC cell lines including A498, Caki1, Caki2, and ACHN, both TKIs were dosed in combination with A939572 up to approximately the IC50 dose for each drug in the Caki1 and the A498 cell lines. […] Combinatorial treatments were therefore done using a fixed dose of Tem (0.1 nM, 1 nM, and 10 nM) combined with a dose range of A939572 up to the IC50 in Caki1, A498, Caki2 and ACHN cells.

[17] = tested on: A498 ccRCC xenografts; experiment: Western blot of CHOP in xenograft tumor tissue; type: in vivo, athymic nude (nu/nu) mice; conditions: normalized to β-actin, tumor tissue samples
Experimental: as §4

[18] = tested on: SCD1; conditions: breast cancer cells, previously reported; cited from earlier work
[19] = tested on: A498 ccRCC xenografts; experiment: IHC analysis of resected xenograft tumors
Experimental: The TMAs were mounted on slides from paraffin-embedded blocks according to IHC procedure and samples were blocked with Diluent that contained Background Reducing Components (Dakocytomation) for 30 min and then probed for SCD1, Ki67, Caspase-3, CD31, phospho-mTOR, DDIT3, and XBP1. […] Stain scoring was done using algorithms generated with Imagescope software created by a histologist. H-scores were calculated based upon signal intensity (0-3+) using the formula: [(1+%×1)+(2+%×2)+(3+%×3)], intensity (I)-scores were calculated by dividing signal intensity by area, and nuclear (N)-scores were calculated by dividing % positive nuclei by total nuclei examined per area. Cases where insufficient tumor tissue presented were excluded from the study. 20× images were obtained using Scanscope XT and Imagescope software.
IHC analysis of tumors resected from each treatment group was analyzed for proliferation, angiogenesis, and cell death (FIG. 6B).

[20] = tested on: BCJ4T bladder cancer cells; experiment: Cell number growth inhibition assay; type: cell-based, human
Experimental: as §1, §2, §3

[21] = tested on: HT1376 bladder cancer cells; experiment: Cell number growth inhibition assay; type: cell-based, human
Experimental: as §1, §2, §3

[22] = tested on: T24 bladder cancer cells; experiment: Cell number growth inhibition assay; type: cell-based, human
Experimental: as §1, §2, §3

[23] = tested on: SNU449 liver cancer cells; experiment: Cell number growth inhibition assay; type: cell-based, human; conditions: SNU449 liver cancer cells
Experimental: as §1, §2, §3

Molecule: CC(=O)O[C@H]1C(=O)[C@@]2(C)[C@H]([C@H](OC(=O)c3ccccc3)[C@]3(O)C[C@H](OC(=O)[C@H](O)[C@@H](NC(=O)c4ccccc4)c4ccccc4)C(C)=C1C3(C)C)[C@]1(OC(C)=O)CO[C@@H]1C[C@@H]2O [Taxol]
- growth inhibition [1]: growth inhibitory
- growth inhibition [2]: growth inhibitory
- growth inhibition [3]: growth inhibitory
- growth inhibition [4]: minimal growth inhibitory effects

Molecule: shSCD780: lentiviral construct expressing shRNA against SCD1, 5′-CTACGGCTCTTTCTGATCATT-3′ (SEQ ID NO:1)
- protein expression of ER stress markers BiP, CHOP, spliced-XBP1 [5]: amplified expression
- ER stress gene expression with addition of OA-BSA ([6]; A498, + OA-BSA): successfully blocked
- mRNA expression of ER stress genes BiP, CHOP, HERPUD1, GADD45a, CEBPβ ([6]; A498, vs DMSO+BSA or NT control): 4 of the 5 were significantly induced
- ER stress gene expression with addition of OA-BSA ([7]; Caki1, + OA-BSA): successfully blocked
- mRNA expression of ER stress genes BiP, CHOP, HERPUD1, GADD45a, CEBPβ ([7]; Caki1, vs DMSO+BSA or NT control): all of the ER stress genes were significantly induced
- SCD1 mRNA expression levels [8]: reduced SCD1 mRNA expression levels
- SCD1 polypeptide expression levels [8]: reduced SCD1 polypeptide expression levels
- SCD1 mRNA expression levels [9]: reduced SCD1 mRNA expression levels
- proliferation / growth [10]: significant decreases in growth
- proliferation / growth ([10]; listed as SCD780): reduced proliferation
- apoptosis by PARP cleavage [11]: induction of apoptosis
- reporter activation with addition of OA-BSA ([12]; Caki1, + OA-BSA): significantly reduced reporter activation
- luciferase activity, fold change induction ([12]; Caki1, +BSA, 75 nM A939572 or shSCD780, 48 hours, vs DMSO and NT controls): 1.7 fold change
- reporter activation with addition of OA-BSA ([13]; A498, + OA-BSA): significantly reduced reporter activation
- luciferase activity, fold change induction ([13]; A498, +BSA, 75 nM A939572 or shSCD780, 48 hours, vs DMSO and NT controls): 2.0 fold change

Molecule: Cn1nnc2c(C(N)=O)ncn2c1=O [Temodar]
- growth inhibition [14]: dose responsively inhibits growth
- growth inhibition [15]: not

Molecule: CO[C@H]1C[C@@H]2CC[C@@H](C)[C@@](O)(O2)C(=O)C(=O)N2CCCC[C@H]2C(=O)O[C@H]([C@H](C)C[C@@H]2CC[C@@H](OC(=O)C(C)(CO)CO)[C@H](OC)C2)CC(=O)[C@H](C)/C=C(\C)[C@@H](O)[C@@H](OC)C(=O)[C@H](C)C[C@H](C)/C=C/C=C/C=C/1C [Temsirolimus, temsirolimus]
- reduction in cell proliferation [16]: limited reduction in cell proliferation
- CHOP expression (ER stress) [17]: induction of CHOP, although to a lesser extent
- SCD1 expression [18]: decrease SCD1 expression
- phosphorylated mTOR expression ([19]; compared to the Placebo and A939572 groups): decreased expression
- angiogenesis, intensity of microvessel density (CD31) ([19]; cumulative scores not considered significant): slight decrease
- cell death, cleaved caspase-3 (CC3) ([19]; vs placebo / other groups): moderate increase
- proliferation, percent positivity of nuclear Ki67 staining ([19]; vs placebo control): decreased proliferation

Molecule: N.N.[Cl][Pt][Cl] [Cisplatin]
- growth inhibition [20]: minimal growth inhibitory effects
- growth inhibition [21]: minimal growth inhibitory effects
- growth inhibition [22]: minimal growth inhibitory effects

Molecule: CNC(=O)c1cc(Oc2ccc(NC(=O)Nc3ccc(Cl)c(C(F)(F)F)c3)cc2)ccn1 [Sorafenib]
- effective concentrations [23]: 1 to 10 µM

Molecule: SCD1200: lentiviral construct expressing shRNA against SCD1, 5′-CGTCCTTATGACAAGAACATT-3′ (SEQ ID NO:2)
- SCD1 mRNA expression levels [8]: reduced SCD1 mRNA expression levels
- SCD1 polypeptide expression levels [8]: reduced SCD1 polypeptide expression levels
- SCD1 mRNA expression levels [9]: reduced SCD1 mRNA expression levels
- proliferation / growth [10]: reduced proliferation
- apoptosis by PARP cleavage [11]: induction of apoptosis
